# Measured values taken from PubChem BioAssay AID1963836 (Molecular Pharmacology Branch, DTP, NCI, 2024).
# Tested on: 857933-349-R-J2-PDC complex spheroid viability
# Assay: Anticancer human tumor 857933-349-R-J2-PDC patient-derived colon adenocarcinoma cell line growth inhibition [POLQ]
# Settings: for IC50: curve of first compound; for viability, T/C: stronger effect = lower value
# Outline: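 Complex spheroid viability model combining PDC tumour cells with endothelial (HUVEC) and MSC stromal cells. Novobiocin, ART-558 or RP6685 were tested singly and in combination with standard and investigational anticancer drugs. Each was titrated in half-log steps from near clinical Cmax, or from 10 microM where Cmax was unknown.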
# [1] = second compound 0.0316 µM, first compound 0.0316 µM
# [2] = second compound 0.0316 µM, first compound 0.1 µM
# [3] = second compound 0.0316 µM, first compound 0.316 µM
# [4] = second compound 0.0316 µM, first compound 1 µM
# [5] = second compound 0.0316 µM, first compound 3.16 µM
# [6] = second compound 0.0316 µM, first compound 10 µM
# [7] = second compound 0.1 µM, first compound 0.0316 µM
# [8] = second compound 0.1 µM, first compound 0.1 µM
# [9] = second compound 0.1 µM, first compound 0.316 µM
# [10] = second compound 0.1 µM, first compound 1 µM
# [11] = second compound 0.1 µM, first compound 3.16 µM
# [12] = second compound 0.1 µM, first compound 10 µM
# [13] = second compound 0.316 µM, first compound 0.0316 µM
# [14] = second compound 0.316 µM, first compound 0.1 µM
# [15] = second compound 0.316 µM, first compound 0.316 µM
# [16] = second compound 0.316 µM, first compound 1 µM
# [17] = second compound 0.316 µM, first compound 3.16 µM
# [18] = second compound 0.316 µM, first compound 10 µM
# [19] = second compound 1 µM, first compound 0.0316 µM
# [20] = second compound 1 µM, first compound 0.1 µM
# [21] = second compound 1 µM, first compound 0.316 µM
# [22] = second compound 1 µM, first compound 1 µM
# [23] = second compound 1 µM, first compound 3.16 µM
# [24] = second compound 1 µM, first compound 10 µM
# [25] = second compound 3.16 µM, first compound 0.0316 µM
# [26] = second compound 3.16 µM, first compound 0.1 µM
# [27] = second compound 3.16 µM, first compound 0.316 µM
# [28] = second compound 3.16 µM, first compound 1 µM
# [29] = second compound 3.16 µM, first compound 3.16 µM
# [30] = second compound 3.16 µM, first compound 10 µM
# [31] = second compound 10 µM, first compound 0.0316 µM
# [32] = second compound 10 µM, first compound 0.1 µM
# [33] = second compound 10 µM, first compound 0.316 µM
# [34] = second compound 10 µM, first compound 1 µM
# [35] = second compound 10 µM, first compound 3.16 µM
# [36] = second compound 10 µM, first compound 10 µM
# 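Further: spheroids exposed to compounds for seven days before readout.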
structure (smiles),measurement,setting,value
C#Cc1c(F)ccc2cc(O)cc(-c3ncc4c(N5CC6CCC(C5)N6)nc(OCC56CCCN5CC(F)C6)nc4c3F)c12 (stereo not given) + Cc1cccc(N(C)C(=O)C2C(O)CCN2c2nc(C)cc(C(F)(F)F)c2C#N)c1,IC50,second compound 0.0316 µM,> 10 µM
same,IC50,second compound 0.1 µM,> 10 µM
same,IC50,second compound 0.316 µM,> 10 µM
same,IC50,second compound 1 µM,> 10 µM
same,IC50,second compound 3.16 µM,> 10 µM
same,IC50,second compound 10 µM,> 10 µM
same,"viability, T/C",[1],91.7%
same,"viability, T/C",[2],105%
same,"viability, T/C",[3],101%
same,"viability, T/C",[4],89.2%
same,"viability, T/C",[5],89.4%
same,"viability, T/C",[6],82.8%
same,"viability, T/C",[7],107%
same,"viability, T/C",[8],97.8%
same,"viability, T/C",[9],96.3%
same,"viability, T/C",[10],76.8%
same,"viability, T/C",[11],89.2%
same,"viability, T/C",[12],74.2%
same,"viability, T/C",[13],101%
same,"viability, T/C",[14],110%
same,"viability, T/C",[15],103%
same,"viability, T/C",[16],80.3%
same,"viability, T/C",[17],96.1%
same,"viability, T/C",[18],91.4%
same,"viability, T/C",[19],87%
same,"viability, T/C",[20],87.1%
same,"viability, T/C",[21],85.6%
same,"viability, T/C",[22],87.5%
same,"viability, T/C",[23],91%
same,"viability, T/C",[24],87.6%
same,"viability, T/C",[25],97.7%
same,"viability, T/C",[26],90.2%
same,"viability, T/C",[27],85.9%
same,"viability, T/C",[28],90.8%
same,"viability, T/C",[29],101%
same,"viability, T/C",[30],84.2%
same,"viability, T/C",[31],80.8%
same,"viability, T/C",[32],86.9%
same,"viability, T/C",[33],91%
same,"viability, T/C",[34],75.1%
same,"viability, T/C",[35],90.9%
same,"viability, T/C",[36],81.3%
CCc1cc2c(N3CCc4c(cc(Cn5ccnc5)cc4-c4cn(C)nc4C(F)(F)F)C3=O)ccnc2c(OC)n1 + Cc1cccc(N(C)C(=O)C2C(O)CCN2c2nc(C)cc(C(F)(F)F)c2C#N)c1,IC50,second compound 0.0316 µM,> 10 µM
same,IC50,second compound 0.1 µM,> 10 µM
same,IC50,second compound 0.316 µM,> 10 µM
same,IC50,second compound 1 µM,> 10 µM
same,IC50,second compound 3.16 µM,> 10 µM
same,IC50,second compound 10 µM,> 10 µM
same,"viability, T/C",[1],104%
same,"viability, T/C",[2],91%
same,"viability, T/C",[3],94.5%
same,"viability, T/C",[4],82%
same,"viability, T/C",[5],77.7%
same,"viability, T/C",[6],63.1%
same,"viability, T/C",[7],91.6%
same,"viability, T/C",[8],92.8%
same,"viability, T/C",[9],75.9%
same,"viability, T/C",[10],79.5%
same,"viability, T/C",[11],77%
same,"viability, T/C",[12],54.8%
same,"viability, T/C",[13],96.5%
same,"viability, T/C",[14],100%
same,"viability, T/C",[15],92.4%
same,"viability, T/C",[16],97.8%
same,"viability, T/C",[17],79.7%
same,"viability, T/C",[18],61.1%
same,"viability, T/C",[19],122%
same,"viability, T/C",[20],103%
same,"viability, T/C",[21],93.1%
same,"viability, T/C",[22],83.3%
same,"viability, T/C",[23],82.5%
same,"viability, T/C",[24],72.3%
same,"viability, T/C",[25],97.8%
same,"viability, T/C",[26],80.1%
same,"viability, T/C",[27],83%
same,"viability, T/C",[28],88.7%
same,"viability, T/C",[29],79.2%
same,"viability, T/C",[30],84.8%
same,"viability, T/C",[31],96.3%
same,"viability, T/C",[32],96.3%
same,"viability, T/C",[33],80.1%
same,"viability, T/C",[34],73.6%
same,"viability, T/C",[35],76.3%
same,"viability, T/C",[36],61.9%
COc1cc2cc(C(=O)CCC(=O)O)sc2cc1OC + Cc1cccc(N(C)C(=O)C2C(O)CCN2c2nc(C)cc(C(F)(F)F)c2C#N)c1,IC50,second compound 0.0316 µM,> 10 µM
same,IC50,second compound 0.1 µM,> 10 µM
same,IC50,second compound 0.316 µM,> 10 µM
same,IC50,second compound 1 µM,> 10 µM
same,IC50,second compound 3.16 µM,> 10 µM
same,IC50,second compound 10 µM,> 10 µM
same,"viability, T/C",[1],97.6%
same,"viability, T/C",[2],95.1%
same,"viability, T/C",[3],93.6%
same,"viability, T/C",[4],97.7%
same,"viability, T/C",[5],96.9%
same,"viability, T/C",[6],84.1%
same,"viability, T/C",[7],94.8%
same,"viability, T/C",[8],93%
same,"viability, T/C",[9],102%
same,"viability, T/C",[10],102%
same,"viability, T/C",[11],86.8%
same,"viability, T/C",[12],87.2%
same,"viability, T/C",[13],88.8%
same,"viability, T/C",[14],93.8%
same,"viability, T/C",[15],89.9%
same,"viability, T/C",[16],89.4%
same,"viability, T/C",[17],87.9%
same,"viability, T/C",[18],76.5%
same,"viability, T/C",[19],89.4%
same,"viability, T/C",[20],96.5%
same,"viability, T/C",[21],100%
same,"viability, T/C",[22],96.9%
same,"viability, T/C",[23],101%
same,"viability, T/C",[24],92.1%
same,"viability, T/C",[25],104%
same,"viability, T/C",[26],106%
same,"viability, T/C",[27],90.4%
same,"viability, T/C",[28],101%
same,"viability, T/C",[29],100%
same,"viability, T/C",[30],86.6%
same,"viability, T/C",[31],84.7%
same,"viability, T/C",[32],87.6%
same,"viability, T/C",[33],81.6%
same,"viability, T/C",[34],105%
same,"viability, T/C",[35],88.8%
same,"viability, T/C",[36],85.6%
O=C(Nc1ccc(O)c(NS(=O)(=O)c2ccc(F)cc2)c1)c1ccc(-c2ccccc2)cc1 + Cc1cccc(N(C)C(=O)C2C(O)CCN2c2nc(C)cc(C(F)(F)F)c2C#N)c1,IC50,second compound 0.0316 µM,> 10 µM
same,IC50,second compound 0.1 µM,> 10 µM
same,IC50,second compound 0.316 µM,> 10 µM
same,IC50,second compound 1 µM,> 10 µM
same,IC50,second compound 3.16 µM,> 10 µM
same,IC50,second compound 10 µM,> 10 µM
same,"viability, T/C",[1],90.2%
same,"viability, T/C",[2],85.2%
same,"viability, T/C",[3],88.2%
same,"viability, T/C",[4],90.6%
same,"viability, T/C",[5],90.3%
same,"viability, T/C",[6],92.5%
same,"viability, T/C",[7],97.7%
same,"viability, T/C",[8],86.2%
same,"viability, T/C",[9],87%
same,"viability, T/C",[10],97.5%
same,"viability, T/C",[11],91.9%
same,"viability, T/C",[12],90.8%
same,"viability, T/C",[13],97.7%
same,"viability, T/C",[14],85.5%
same,"viability, T/C",[15],97.8%
same,"viability, T/C",[16],93.4%
same,"viability, T/C",[17],88.9%
same,"viability, T/C",[18],70.8%
same,"viability, T/C",[19],99.1%
same,"viability, T/C",[20],82%
same,"viability, T/C",[21],96.8%
same,"viability, T/C",[22],95.4%
same,"viability, T/C",[23],114%
same,"viability, T/C",[24],93%
same,"viability, T/C",[25],97.9%
same,"viability, T/C",[26],95.9%
same,"viability, T/C",[27],97.6%
same,"viability, T/C",[28],93.4%
same,"viability, T/C",[29],96.8%
same,"viability, T/C",[30],77.7%
same,"viability, T/C",[31],95.3%
same,"viability, T/C",[32],105%
same,"viability, T/C",[33],91%
same,"viability, T/C",[34],90%
same,"viability, T/C",[35],88.6%
same,"viability, T/C",[36],73.8%
COc1cccc2c1C(=O)c1c(O)c3c(c(O)c1C2=O)CC(O)(C(=O)CO)CC3OC1CC(N)C(O)C(C)O1 (stereo not given) + Nc1ccc(C#CCN(C(=O)Cc2ncc(C(F)(F)F)cc2C(F)(F)F)c2ccc(F)cc2)nn1,IC50,second compound 0.0316 µM,0.22 µM
same,IC50,second compound 0.1 µM,0.212 µM
same,IC50,second compound 0.316 µM,0.234 µM
same,IC50,second compound 1 µM,0.216 µM
same,IC50,second compound 3.16 µM,0.175 µM
same,IC50,second compound 10 µM,0.149 µM
same,"viability, T/C",[1],74.9%
same,"viability, T/C",[2],63%
same,"viability, T/C",[3],43.9%
same,"viability, T/C",[4],5.65%
same,"viability, T/C",[5],0.31%
same,"viability, T/C",[6],0.26%
same,"viability, T/C",[7],74.3%
same,"viability, T/C",[8],67.1%
same,"viability, T/C",[9],40.7%
same,"viability, T/C",[10],5.86%
same,"viability, T/C",[11],0.25%
same,"viability, T/C",[12],0.17%
same,"viability, T/C",[13],65%
same,"viability, T/C",[14],85.6%
same,"viability, T/C",[15],41.1%
same,"viability, T/C",[16],5.61%
same,"viability, T/C",[17],0.2%
same,"viability, T/C",[18],0.19%
same,"viability, T/C",[19],83%
same,"viability, T/C",[20],75.7%
same,"viability, T/C",[21],36.9%
same,"viability, T/C",[22],9.45%
same,"viability, T/C",[23],0.22%
same,"viability, T/C",[24],0.23%
same,"viability, T/C",[25],72.5%
same,"viability, T/C",[26],60.4%
same,"viability, T/C",[27],37.9%
same,"viability, T/C",[28],5.43%
same,"viability, T/C",[29],0.39%
same,"viability, T/C",[30],0.28%
same,"viability, T/C",[31],66.9%
same,"viability, T/C",[32],63%
same,"viability, T/C",[33],26.8%
same,"viability, T/C",[34],6.24%
same,"viability, T/C",[35],0.35%
same,"viability, T/C",[36],0.32%
